Experimental data: ChEMBL document CHEMBL1134787, “Synthesis and biological studies of novel nucleoside phosphoramidate prodrugs” (J Med Chem, 2001)

Assays:
L1210 [1] = assay: Growth inhibition in L1210 mouse leukemia cells after 2 hr treatment; assay type: functional, cell-based; settings: L1210, 2 h
L1210 [2] = assay: Growth inhibition in L1210 mouse leukemia cells after 24 h treatment; assay type: functional, cell-based; settings: L1210, 24 h
L1210 [3] = assay: Growth inhibition in L1210 mouse leukemia cells after 48 hr treatment; assay type: functional, cell-based; settings: L1210, 48 h
Thymidylate synthase [4] = target: T1, Thymidylate synthase (Mus musculus, UniProt P07607); assay: Thymidylate synthase inhibition in L1210 mouse leukemia cells after 2 hr treatment; assay type: cell-based
T1 sequence (P07607 whole entry): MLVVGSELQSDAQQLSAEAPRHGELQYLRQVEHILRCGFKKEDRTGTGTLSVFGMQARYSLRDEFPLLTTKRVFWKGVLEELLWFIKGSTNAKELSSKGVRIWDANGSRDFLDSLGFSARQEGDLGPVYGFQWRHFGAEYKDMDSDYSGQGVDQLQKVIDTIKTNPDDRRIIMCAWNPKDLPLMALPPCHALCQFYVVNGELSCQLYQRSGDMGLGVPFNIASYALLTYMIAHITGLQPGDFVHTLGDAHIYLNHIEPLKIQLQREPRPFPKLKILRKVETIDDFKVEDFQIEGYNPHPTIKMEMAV

Thymidylate synthase [5] = target: T1, Thymidylate synthase; assay: Thymidylate synthase inhibition in thymidine kinase deficient /TK cells after 2 hr treatment
Thymidylate synthase [6] = target: T1, Thymidylate synthase; assay: Thymidylate synthase inhibition in thymidine kinase deficient LM cells after 2 hr treatment; assay type: cell-based
Thymidylate synthase [7] = target: T1, Thymidylate synthase; assay: Thymidylate synthase inhibition in wild type LM cells after 2 hr treatment; assay type: cell-based
L1210 [8] = assay: Growth inhibition in L1210 mouse leukemia cells after 8 h treatment; assay type: functional, cell-based; settings: L1210, 8 h

| Compound | IC50 (L1210 [1]) [nM] | IC50 (L1210 [2]) [nM] | IC50 (L1210 [3]) [nM] | IC50 (Thymidylate synthase [4]) [nM] | IC50 (Thymidylate synthase [5]) [nM] | IC50 (Thymidylate synthase [6]) [nM] | IC50 (Thymidylate synthase [7]) [nM] | IC50 (L1210 [8]) [nM] |
| --- | --- | --- | --- | --- | --- | --- | --- | --- |
| O=c1[nH]c(=O)n([C@H]2C[C@H](O)[C@@H](CO)O2)cc1F [FLOXURIDINE] | 45 | 4.1 | 0.64 | 7.9 | 20 | 5400 | 260 | 23 |
| CN(CCCCCl)P(=O)(OCC1=CC(=O)c2ccccc2C1=O)OC[C@H]1O[C@@H](n2cc(F)c(=O)[nH]c2=O)C[C@@H]1O (some centres not stated) | 44 | 3.1 | 0.63 | 10 | 25 | 5900 | 230 | 16 |
| CN(CCCCCl)P(=O)(OCc1ccc([N+](=O)[O-])o1)OC[C@H]1O[C@@H](n2cc(F)c(=O)[nH]c2=O)C[C@@H]1O (some centres not stated) | 116 | 7.2 | 2.3 | 65 | 1.9 | 1060 | 560 | 47 |
| O=c1[nH]cc(F)c(=O)[nH]1 [FLUOROURACIL] | 2500 | 360 | 200 |  |  |  |  | 1010 |
| CN(CCBr)P(=O)(OCc1ccc([N+](=O)[O-])o1)OC[C@H]1O[C@@H](n2cc(F)c(=O)[nH]c2=O)C[C@@H]1O (some centres not stated) | 1030 | 56 | 16 |  |  |  |  | 347 |
